Biological target: T1, human DGAT2 (Homo sapiens, UniProt Q96PD7)
T1 construct: FLAG (DYKDDDDK); made in house; host or cells: Sf-21 insect cells (BacPAK baculovirus system); membrane fraction used
T1 sequence (Q96PD7 1-388): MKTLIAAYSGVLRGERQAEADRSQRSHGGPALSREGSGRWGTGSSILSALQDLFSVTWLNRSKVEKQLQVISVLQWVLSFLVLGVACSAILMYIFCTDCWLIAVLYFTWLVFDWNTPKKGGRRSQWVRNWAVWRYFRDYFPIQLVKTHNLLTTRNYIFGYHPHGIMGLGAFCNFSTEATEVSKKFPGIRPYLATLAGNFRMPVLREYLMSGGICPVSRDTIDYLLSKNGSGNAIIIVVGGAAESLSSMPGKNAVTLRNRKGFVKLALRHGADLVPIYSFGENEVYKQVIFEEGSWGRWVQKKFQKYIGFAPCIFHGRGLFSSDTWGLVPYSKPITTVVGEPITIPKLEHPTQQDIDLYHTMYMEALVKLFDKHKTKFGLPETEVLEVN
Assay: DGAT2 enzyme activity inhibition, Phospholipid FlashPlate SPA
Assay type: biochemical
Details: recombinant human DGAT2 membrane protein from Sf-21 cells; inhibition of [14C]-TG production; 37° C.
Method in brief: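 Sf-21 membranes expressing recombinant human DGAT2 (2 μg) preincubated with compound (3 nM–10 μM, 1% DMSO) and 50 μM 1,2 sn-oleoyl glycerol, 20 min at 37 °C, then 1 μM [14C]oleoyl-CoA for 15 min. [14C]-TG counted by SPA; inhibition as % of untreated.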

With `CCOc1cccnc1O[C@@H]1CCCN(c2cncc(Nc3ccnc(-c4cccc(OC(C)(C)C(=O)O)c4)n3)n2)C1` [Example 175, (R)-2-(3-(4-((6-(3-((3-ethoxypyridin-2-yl)oxy)piperidin-1-yl)pyrazin-2-yl)amino)pyrimidin-2-yl)phenoxy)-2-methylpropanoic Acid] the IC50 was 1100 nM.
Compound `CCOc1ccccc1O[C@@H]1CCCN(c2cncc(Nc3nccs3)n2)C1` [Example 3, (R)—N-(6-(3-(2-ethoxyphenoxy)piperidin-1-yl)pyrazin-2-yl)thiazol-2-amine] has an IC50 of 6300 nM.
`CCOc1ccccc1O[C@@H]1CCCN(c2cncc(Nc3ccnc(-c4ccc(OC(C)(C)C(=O)O)cc4)n3)n2)C1` [Example 178, (R)-2-(4-(4-((6-(3-(2-ethoxyphenoxy)piperidin-1-yl)pyrazin-2-yl)amino)pyrimidin-2-yl)phenoxy)-2-methylpropanoic Acid] gave an IC50 of 490 nM.
With `CCOc1ccccc1O[C@@H]1CCCN(c2cncc(Nc3ccn(-c4cccc(CC(C)(C)C(=O)O)c4)n3)n2)C1` [Example 69, (R)-3-(3-(3-((6-(3-(2-ethoxyphenoxy)piperidin-1-yl)pyrazin-2-yl)amino)-1H-pyrazol-1-yl)phenyl)-2,2-dimethylpropanoic Acid] the IC50 was 1100 nM.
Work on `CCOc1ccccc1O[C@@H]1CCCN(c2cncc(Nc3nc4cc(C(C)(C)C(=O)O)ccc4o3)n2)C1` [Example 13, (R)-2-(2-((6-(3-(2-ethoxyphenoxy)piperidin-1-yl)pyrazin-2-yl)amino)benzo[d]oxazol-5-yl)-2-methylpropanoic Acid] yielded an IC50 of 960 nM.
With `CCOc1ccccc1O[C@@H]1CCCN(c2cncc(Nc3nccc(N4CCC[C@H]4C(=O)O)n3)n2)C1` [Example 117, (2-((6-((R)-3-(2-ethoxyphenoxy)piperidin-1-yl)pyrazin-2-yl)amino)pyrimidin-4-yl)-L-proline] the IC50 was > 10000 nM.
In the case of `CCOc1ccccc1O[C@@H]1CCCN(c2cncc(Nc3cncc(-c4cccc(CC(C)(C)C(=O)O)c4)n3)n2)C1` [Example 112, (R)-3-(3-(6-((6-(3-(2-ethoxyphenoxy)piperidin-1-yl)pyrazin-2-yl)amino)pyrazin-2-yl)phenyl)-2,2-dimethylpropanoic Acid], the IC50 is reported as 200 nM.
Work on `CCOc1ccccc1O[C@@H]1CCCN(c2ccnc(Nc3cccc(-c4cccc(CC(C)(C)C(=O)O)c4)n3)n2)C1` [Example 67, (R)-3-(3-(6-((4-(3-(2-ethoxyphenoxy)piperidin-1-yl)pyrimidin-2-yl)amino)pyridin-2-yl)phenyl)-2,2-dimethylpropanoic Acid] yielded an IC50 of 2400 nM.
Compound `CCOc1cccnc1O[C@@H]1CCCN(c2cncc(Nc3nc(-c4cccc(CC(C)(C)C(=O)O)c4)cc(C(F)(F)F)n3)n2)C1` [Example 166, (R)-3-(3-(2-((6-(3-((3-ethoxypyridin-2-yl)oxy)piperidin-1-yl)pyrazin-2-yl)amino)-6-(trifluoromethyl)pyrimidin-4-yl)phenyl)-2,2-dimethylpropanoic Acid] has an IC50 of 470 nM.
With `CCOc1ccccc1O[C@@H]1CCCN(c2cncc(Nc3nccc(N4CCC[C@@H](/C=C/C(=O)O)C4)n3)n2)C1` [Example 129, (E)-3-((S)-1-(2-((6-((R)-3-(2-ethoxyphenoxy)piperidin-1-yl)pyrazin-2-yl)amino)pyrimidin-4-yl)piperidin-3-yl)acrylic Acid] the IC50 was 800 nM.
In the case of `CCOc1ccccc1O[C@@H]1CCCN(c2cncc(Nc3cccc(-c4ccc(CC(C)(C)C(=O)O)cc4)c3)n2)C1` [Example 30, (R)-3-(3′-((6-(3-(2-ethoxyphenoxy)piperidin-1-yl)pyrazin-2-yl)amino)-[1,1′-biphenyl]-4-yl)-2,2-dimethylpropanoic Acid], the IC50 is reported as 2400 nM.
For `CCOc1ccccc1O[C@@H]1CCCN(c2cncc(Nc3nccc(N4CCC[C@H](OCC(=O)O)C4)n3)n2)C1` [Example 131, 2-(((S)-1-(2-((6-((R)-3-(2-ethoxyphenoxy)piperidin-1-yl)pyrazin-2-yl)amino)pyrimidin-4-yl)piperidin-3-yl)oxy)acetic Acid], the IC50 was > 10000 nM.
For `CCOc1ccccc1O[C@@H]1CCCN(c2cncc(Nc3ccn(CC(C)(C)C(=O)O)n3)n2)C1` [Example 21, (R)-3-(3-((6-(3-(2-ethoxyphenoxy)piperidin-1-yl)pyrazin-2-yl)amino)-1H-pyrazol-1-yl)-2,2-dimethylpropanoic Acid], the IC50 was > 10000 nM.
`CCOc1cccnc1O[C@@H]1CCCN(c2cncc(Nc3ccnc(-c4ccc(CC(C)(C)C(=O)O)cc4)n3)n2)C1` [Example 173, (R)-3-(4-(4-((6-(3-((3-ethoxypyridin-2-yl)oxy)piperidin-1-yl)pyrazin-2-yl)amino)pyrimidin-2-yl)phenyl)-2,2-dimethylpropanoic Acid] showed an IC50 of 220 nM.
`CCOc1ccccc1O[C@@H]1CCCN(c2cncc(Nc3cccc(-c4cc(OC(C)(C)C(=O)O)ccc4F)n3)n2)C1` [Example 84, (R)-2-(3-(6-((6-(3-(2-ethoxyphenoxy)piperidin-1-yl)pyrazin-2-yl)amino)pyridin-2-yl)-4-fluorophenoxy)-2-methylpropanoic Acid] gave an IC50 of 400 nM.
`CCOc1ccccc1O[C@@H]1CCCN(c2cncc(Nc3ccc(-c4ccccc4)cn3)n2)C1` [Example 40, (R)-6-(3-(2-ethoxyphenoxy)piperidin-1-yl)-N-(5-phenylpyridin-2-yl)pyrazin-2-amine] showed an IC50 of 1700 nM.
`CCOc1ccccc1O[C@@H]1CCCN(c2cncc(Nc3cccc(-c4cccc(OC(C)(C)C(=O)O)c4)n3)n2)C1` [Example 80, (R)-2-(3-(6-((6-(3-(2-ethoxyphenoxy)piperidin-1-yl)pyrazin-2-yl)amino)pyridin-2-yl)phenoxy)-2-methylpropanoic Acid] was tested, and the IC50 was 310 nM.
With `CCOc1ccccc1O[C@@H]1CCCN(c2cncc(Nc3ccc(/C=C/C(=O)O)cn3)n2)C1` [Example 37, (R,E)-3-(6-((6-(3-(2-ethoxyphenoxy)piperidin-1-yl)pyrazin-2-yl)amino)pyridin-3-yl)acrylic Acid] the IC50 was > 10000 nM.
In the case of `CCOc1ccccc1O[C@@H]1CCCN(c2cncc(Nc3nc(-c4ccccc4)cs3)n2)C1` [Example 4, (R)—N-(6-(3-(2-ethoxyphenoxy)piperidin-1-yl)pyrazin-2-yl)-4-phenylthiazol-2-amine], the IC50 is reported as > 10000 nM.

From patent US12630528B2, “Amino aryl derivative useful as diacylglycerol acyltransferase 2 inhibitor and use thereof” (LG CHEM, LTD., priority 2019, dated 2026)
